Like-named read-outs stand apart in the source and are kept apart here. Residues, ends and D or L forms follow the SMILES beside them. No end group written: not given here.
Key:
Assay type in all cases: cell-based
[1] = system: red blood cells (erythrocytes); test: Hemolytic activity of the peptides (hemoglobin release, absorbance at 412 nm)
Method: Hemolysis as defined herein is an in vitro assay where the compounds tendency to lyse red blood cells is determined. Presumably, the compounds that are less hemolytic will be less toxic in vivo. Increasing amounts of compound are added to solutions containing red blood cells and left for a specified time and then lysis is determined spectrophotometrically by measuring hemoglobin release.
A small volume of a suspension of erythrocytes (about 100 million) is kept on ice with a specific amount of lytic peptide. The cells are then placed in a 37° C. water bath for 10 min, vortexed and centrifuged at 1000 g for 2 min. The supernatant was removed and the amount of hemoglobin that was released was determined by the samples' absorbance at 412 nm. Control values without added peptide were subtracted from the absorbance readings.
The numerical difference between the value of the mean of hemolysis and the mean of the activity is a useful way to determine those peptides having the most desired activity.

bacteria = test: Antibacterial activity of the peptides, broth microdilution MIC, mean activity (Table II); settings: overnight incubation (18 to 24 h)
Method: (§1) Minimum Inhibitory Concentration or MIC for the purpose of this invention is the lowest concentration of an antimicrobial that will inhibit the visible growth of a microorganism after overnight incubation. Minimum inhibitory concentrations are important in diagnostic laboratories to confirm resistance of microorganisms to an antimicrobial agent and also to monitor the activity of new antimicrobial agents. A MIC is generally regarded as the most basic laboratory measurement of the activity of an antimicrobial agent against an organism. MBC is defined as the lowest concentration of an antimicrobial agent needed to kill 99.9% of the initial organism inoculum. Presently, specific guidelines for interpretation are not available; therefore, a clinician knowledgeable in both bactericidal testing and infectious diseases should be available to interpret the results.
(§2) MICs were determined by the broth microdilution method described by the National Committee for Clinical Laboratory Standards (17). Serial twofold dilutions of each peptide solution were prepared (final volume, […]) in microtiter trays with appropriate medium. Each dilution series included control wells containing bacteria without peptide. A total of […] of the adjusted inoculum (100,000 organisms) was added to each well, and then the trays were incubated at
(§3) in ambient air overnight (18 to 24 h). The MIC of each peptide for each isolate was read as the lowest concentration of peptide that inhibited visible growth of the organism.
The above in vitro tests and analyses were conducted on a set of designed peptides of the present invention; and, for comparative purposes, naturally derived molecules.

Sinorhizobium = test: MIC by broth microdilution; set-up: unit not given here
Method: as §1, §2, §3

Xanthomonas = test: MIC by broth microdilution; set-up: unit not given here
Method: as §1, §2, §3

agrobacterium = test: MIC by broth microdilution; set-up: unit not given here
Method: as §1, §2, §3

[2] = system: agrobacterium, Sinorhizobium, Xanthomonas; test: MIC by broth microdilution, mean over B1-B3; settings: mean of MIC for B1, B2, B3
Method: as §1, §2, §3

Aspergillus flavus = test: Antimicrobial activity against pathogens (MIC80 / MBC100); settings: concentration of TP necessary to limit growth by 80%
Source text: (§4) A comparison of antimicrobial activity for these two naturally occurring peptides against various pathogens (combined fungal and bacterial) is summarized below

Fusarium moniliforme = test: as above; settings: concentration of TP necessary to limit growth by 80%
Source text: as §4

Xanthomonas campestris = test: as above; settings: concentration of TP necessary to limit growth by 80%
Source text: as §4

[3] = erythrocytes, 37° C. for 10 min

Compound	Mean of Hemolysis [1] [µM]	Mean Activity (bacteria) [µM]	other results
CC[C@H](C)[C@H](NC(=O)[C@H](CCCCN)NC(=O)[C@H](C)NC(=O)[C@H](CCCNC(=N)N)NC(=O)[C@H](CC(C)C)NC(=O)[C@H](CCCNC(=N)N)NC(=O)[C@@H](NC(=O)[C@H](CCCCN)NC(=O)[C@@H](NC(=O)[C@H](CCCCN)NC(=O)[C@H](C)NC(=O)[C@H](CCCNC(=N)N)NC(=O)[C@H](CC(C)C)NC(=O)[C@H](CCCCN)NC(=O)[C@@H](N)Cc1ccccc1)C(C)C)[C@@H](C)CC)C(=O)N[C@@H](CCCCN)C(=O)N[C@@H](CC(C)C)C(=O)O [AGM 155] (H-FKLRAKVKIRLRAKIKL-OH; N-terminus and C-terminus assumed)	1.6	–	–
CC[C@H](C)[C@H](NC(=O)[C@H](CCCCN)NC(=O)[C@@H](NC(=O)[C@H](CCCNC(=N)N)NC(=O)[C@H](CC(C)C)NC(=O)[C@H](CCCNC(=N)N)NC(=O)[C@H](C)NC(=O)[C@H](CCCCN)NC(=O)[C@@H](NC(=O)[C@H](CCCCN)NC(=O)[C@@H](N)Cc1ccccc1)[C@@H](C)CC)C(C)C)C(=O)N[C@@H](CCCCN)C(=O)N[C@@H](C)C(=O)N[C@@H](CCCNC(=N)N)C(=O)N[C@@H](CC(C)C)C(=O)N[C@@H](CCCCN)C(=O)N[C@@H](CC(C)C)C(=O)O [AGM 176] (H-FKIKARLRVKIKARLKL-OH; N-terminus and C-terminus assumed)	1.3	–	–
CC[C@H](C)[C@H](NC(=O)[C@H](CCCNC(=N)N)NC(=O)[C@H](CC(C)C)NC(=O)[C@H](CCCCN)NC(=O)[C@@H](NC(=O)[C@H](CCCCN)NC(=O)[C@H](C)NC(=O)[C@H](CCCNC(=N)N)NC(=O)[C@@H](NC(=O)[C@H](CCCNC(=N)N)NC(=O)[C@@H](N)Cc1ccccc1)[C@@H](C)CC)C(C)C)C(=O)N[C@@H](CCCNC(=N)N)C(=O)N[C@@H](C)C(=O)N[C@@H](CCCCN)C(=O)N[C@H](C(=O)N[C@@H](CCCNC(=N)N)C(=O)N[C@@H](CC(C)C)C(=O)O)C(C)C [AGM 178] (H-FRIRAKVKLRIRAKVRL-OH; N-terminus and C-terminus assumed)	1.2	–	–
CC[C@H](C)[C@H](NC(=O)[C@H](CCCNC(=N)N)NC(=O)[C@H](C)NC(=O)[C@H](CCCCN)NC(=O)[C@@H](NC(=O)[C@H](CCCCN)NC(=O)[C@H](CC(C)C)NC(=O)[C@H](CCCNC(=N)N)NC(=O)[C@@H](NC(=O)[C@H](CCCNC(=N)N)NC(=O)[C@H](C)NC(=O)[C@H](CCCCN)NC(=O)[C@@H](NC(=O)[C@H](CCCNC(=N)N)NC(=O)[C@@H](N)Cc1ccccc1)C(C)C)[C@@H](C)CC)C(C)C)C(=O)N[C@@H](CCCNC(=N)N)C(=O)N[C@@H](CC(C)C)C(=O)O [AGM 179] (H-FRVKARIRLKVKARIRL-OH; N-terminus and C-terminus assumed)	2.1	–	–
CC[C@H](C)[C@H](NC(=O)[C@H](CCCNC(=N)N)NC(=O)[C@@H]1CCCN1C(=O)[C@H](Cc1cnc[nH]1)NC(=O)[C@@H]1CCCN1C(=O)[C@@H]1CCCN1C(=O)[C@H](CCCNC(=N)N)NC(=O)[C@@H]1CCCN1C(=O)[C@H](CCC(N)=O)NC(=O)[C@@H]1CCCN1C(=O)[C@@H](NC(=O)[C@H](Cc1ccc(O)cc1)NC(=O)[C@@H](NC(=O)[C@@H]1CCCN1C(=O)[C@H](CCCNC(=N)N)NC(=O)[C@H](CC(N)=O)NC(=O)[C@H](CC(N)=O)NC(=O)CN)C(C)C)[C@@H](C)CC)C(=O)O [Apidaecin IA] (H-GNNRPVYIPQPRPPHPRI-OH)	1.6	20.67	–
CC[C@H](C)[C@H](NC(=O)CNC(=O)[C@H](CC(N)=O)NC(=O)[C@H](CCCNC(=N)N)NC(=O)[C@@H](NC(=O)[C@H](CC(N)=O)NC(=O)[C@H](CCCNC(=N)N)NC(=O)CNC(=O)[C@H](CCSC)NC(=O)[C@H](CCCCN)NC(=O)[C@H](CCC(=O)O)NC(=O)[C@@H](NC(=O)[C@H](CCCCN)NC(=O)[C@H](CCCCN)NC(=O)[C@H](Cc1ccccc1)NC(=O)[C@@H](NC(=O)[C@H](CCCCN)NC(=O)[C@H](Cc1c[nH]c2ccccc12)NC(=O)[C@@H](N)CCCCN)C(C)C)[C@@H](C)CC)[C@@H](C)CC)C(=O)N[C@H](C(=O)N[C@@H](CCCCN)C(=O)N[C@@H](C)C(=O)NCC(=O)N1CCC[C@H]1C(=O)N[C@@H](C)C(=O)N[C@H](C(=O)N[C@@H](C)C(=O)N[C@H](C(=O)N[C@@H](CC(C)C)C(=O)NCC(=O)N[C@@H](CCC(=O)O)C(=O)N[C@@H](C)C(=O)N[C@@H](CCCCN)C(=O)N[C@@H](C)C(=O)N[C@@H](CC(C)C)C(N)=O)C(C)C)[C@@H](C)CC)C(C)C [Cecropin B] (H-KWKVFKKIEKMGRNIRNGIVKAGPAIAVLGEAKAL-NH2)	1.2	–	–
CC[C@H](C)[C@H](NC(=O)[C@@H]1CCCN1C(=O)[C@H](CCCNC(=N)N)NC(=O)[C@@H]1CCCN1C(=O)[C@H](Cc1cnc[nH]1)NC(=O)[C@H](CO)NC(=O)[C@@H](NC(=O)[C@@H]1CCCN1C(=O)[C@H](CCCNC(=N)N)NC(=O)[C@@H]1CCCN1C(=O)[C@H](CO)NC(=O)[C@H](Cc1ccc(O)cc1)NC(=O)[C@@H]1CCCN1C(=O)[C@H](CCCNC(=N)N)NC(=O)[C@@H]1CCCN1C(=O)[C@H](CCCCN)NC(=O)CN)[C@@H](C)O)C(=O)N[C@@H](CCCNC(=N)N)C(=O)N[C@H](C(=O)O)C(C)C [Drosocin] (H-GKPRPYSPRPTSHPRPIRV-OH)	1.6	21	–
CC[C@H](C)[C@H](NC(=O)CN)C(=O)NCC(=O)N[C@@H](C)C(=O)N[C@H](C(=O)N[C@@H](CC(C)C)C(=O)N[C@@H](CCCCN)C(=O)N[C@H](C(=O)N[C@@H](CC(C)C)C(=O)N[C@H](C(=O)N[C@H](C(=O)NCC(=O)N[C@@H](CC(C)C)C(=O)N1CCC[C@H]1C(=O)N[C@@H](C)C(=O)N[C@@H](CC(C)C)C(=O)N[C@H](C(=O)N[C@@H](CO)C(=O)N[C@@H](Cc1c[nH]c2ccccc12)C(=O)N[C@H](C(=O)N[C@@H](CCCCN)C(=O)N[C@@H](CCCNC(=N)N)C(=O)N[C@@H](CCCCN)C(=O)N[C@@H](CCCNC(=N)N)C(=O)N[C@@H](CCC(N)=O)C(=O)N[C@@H](CCC(N)=O)C(N)=O)[C@@H](C)CC)[C@@H](C)CC)[C@@H](C)O)[C@@H](C)O)C(C)C)C(C)C [Melittin]	–	1.33	Mean of Hemolysis [1, 3]: 100.8 µM
Cecropin A	–	3.83	–
Histatin-5	1.8	30	–
Indolicidin	2	5.33	–
KAFKKAFKKFKKACFKGLCAKKFKKFAKKFAK [AGM 183]	–	–	MIC for B2 (Sinorhizobium): 0.3; MIC for B3 (Xanthomonas): 1; MIC for B1 (agrobacterium): 3; Mean [2]: 1.44
KARLKFCFKGLCIKIKVR [AGM 181]	–	–	MIC for B2 (Sinorhizobium): 0.3; MIC for B3 (Xanthomonas): 1; MIC for B1 (agrobacterium): 1; Mean [2]: 0.77
KFAKKFKKFAKKFCFKGLCAFKKAFKKFKKAF [AGM 184]	–	–	MIC for B2 (Sinorhizobium): 0.3; MIC for B3 (Xanthomonas): 1; MIC for B1 (agrobacterium): 1; Mean [2]: 0.77
KIKARLCLGKFCIKARLK [AGM 182]	–	–	MIC for B2 (Sinorhizobium): 0.3; MIC for B3 (Xanthomonas): 1; MIC for B1 (agrobacterium): 1; Mean [2]: 0.77
KWCFRVCYRGICYRRCR [TP, defensin-like peptide found in the hemolymph of the horseshoe crab]	–	0.3	TP MIC80 (Aspergillus flavus): 34 µM; TP MIC80 (Fusarium moniliforme): 21 µM; TP MIC80 (Xanthomonas campestris): 0.77 µM; Mean of Hemolysis [1, 3]: 3 µM
LL-37	5.1	1	–
Magainin I: Magainins: 23 amino acids in length, derived from the African Clawed Frog (GIGKFLHSAGKFGKAFVGEIMKS; Magainin-1; UniProt P11006 37-59, looked up)	1.3	30	–
Magainin II	1.5	30	–
Pyrrhocoricin (D): naturally derived molecule tested for comparative purposes (VDKGSYLPRPTPPRPIYNRN; not fully specified; UniProt P37362 1-20, looked up)	–	23.33	Mean of Hemolysis [1, 3]: 1.9 µM
Pyrrhocoricin (H): naturally derived molecule tested for comparative purposes (VDKGSYLPRPTPPRPIYNRN; UniProt P37362 1-20, looked up)	–	26.67	Mean of Hemolysis [1, 3]: 1.6 µM

From patent US9163066B2, “Antimicrobial lytic peptides” (priority 2010, dated 2015)
